Experimental data as given in patent US20110230472A1, “RING-FUSED AZOLE DERIVATIVE HAVING PI3K-INHIBITING ACTIVITY” (Shionogi & Co., Ltd., priority 2008, published 2011).

Each compound was assayed against PI-3 kinase γ (Homo sapiens, UniProt P48736) (assay: PI3Kγ inhibitory activity, PI3-kinase HTRF assay (inhibition ratio)). Settings: 0.5 h; PI3Kγ, compound at 10 μM.
Assay type: biochemical
Protocol: The PI3Kγ inhibitory activity of a compound was evaluated using PI3-kinase HTRF™ assay (Millipore) according to the following procedure:
To each well of a testing plate, 5 μL of a compound solution containing 10% DMSO (200 μmol/L or 40 μmol/L as the concentration of the compound), 5 μL of a substrate solution (40 μmol/L phosphatidylinositol (4,5)-bisphosphate, 20 mmol/L MgCl2, 10 mmol/L DTT), and 5 μL of a enzyme solution (80 μg/mL PI-3 kinase γ, 10 mmol/L MgCl2, 5 mmol/L DTT) were added, and then allowed to stand for 10 minutes.
Then, 5 μL of a reaction solution (40 μmol/L ATP, 10 mmol/L MgCl2, 5 mmol/L DTT) was added thereto. After reacting for 30 minutes at room temperature, 5 μL of a solution containing EDTA and biotinylated phosphatidylinositol (3,4,5)-triphosphate were added to quench the reaction.
5 μL of a detection reagent containing a europium-labeled anti-GST antibody, the GST-tagged PH domain, and allophycocyanin-labeled streptavidin was added thereto. After 18 hours, HTRF (excitation wavelength: 330 nm, measured wavelengths: 620 nm and 665 nm) was measured.
HTRF ratio was defined as the value obtained by dividing the amount of fluorescence obtained at the measured wavelength 665 nm by the amount of fluorescence obtained at 620 nm. The HTRF ratio in the absence of a compound was defined as 100% activity and the HTRF ratio in the absence of PI-3 kinase γ was defined as 0% activity to calculate an inhibition ratio which was defined as the PI3Kγ inhibitory activity of a compound at 50 μmol/L or 10 μmol/L.

Chain of PI-3 kinase γ (P48736 whole entry): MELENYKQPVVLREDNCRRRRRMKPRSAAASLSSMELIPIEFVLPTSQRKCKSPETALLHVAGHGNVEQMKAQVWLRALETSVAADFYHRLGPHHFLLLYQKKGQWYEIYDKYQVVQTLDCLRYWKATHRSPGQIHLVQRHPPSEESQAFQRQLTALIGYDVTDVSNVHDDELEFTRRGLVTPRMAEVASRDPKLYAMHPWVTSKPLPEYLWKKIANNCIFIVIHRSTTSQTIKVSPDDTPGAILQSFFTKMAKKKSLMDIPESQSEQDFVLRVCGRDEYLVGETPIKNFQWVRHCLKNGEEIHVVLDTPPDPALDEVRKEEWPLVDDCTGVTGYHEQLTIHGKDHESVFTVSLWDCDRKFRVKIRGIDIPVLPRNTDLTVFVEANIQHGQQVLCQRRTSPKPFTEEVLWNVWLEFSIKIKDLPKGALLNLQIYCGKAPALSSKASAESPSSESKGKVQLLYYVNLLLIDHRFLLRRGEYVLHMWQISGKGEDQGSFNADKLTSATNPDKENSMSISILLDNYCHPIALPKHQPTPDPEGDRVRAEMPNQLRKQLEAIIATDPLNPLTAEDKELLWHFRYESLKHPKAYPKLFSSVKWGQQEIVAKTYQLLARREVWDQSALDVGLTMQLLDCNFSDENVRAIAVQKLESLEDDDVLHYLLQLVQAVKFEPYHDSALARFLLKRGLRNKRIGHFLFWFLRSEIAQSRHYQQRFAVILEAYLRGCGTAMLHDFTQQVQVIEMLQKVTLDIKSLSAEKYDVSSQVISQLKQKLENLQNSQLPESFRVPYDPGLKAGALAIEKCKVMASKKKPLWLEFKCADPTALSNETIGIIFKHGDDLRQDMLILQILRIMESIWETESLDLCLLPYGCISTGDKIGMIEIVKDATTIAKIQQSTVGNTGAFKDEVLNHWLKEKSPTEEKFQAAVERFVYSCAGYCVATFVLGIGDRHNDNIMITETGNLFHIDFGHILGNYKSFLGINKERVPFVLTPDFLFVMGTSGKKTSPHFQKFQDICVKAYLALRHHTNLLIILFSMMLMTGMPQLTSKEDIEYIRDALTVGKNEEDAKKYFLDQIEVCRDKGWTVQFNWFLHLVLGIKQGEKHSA

| Compound | inhibition at 10 µM |
| --- | --- |
| COc1cccc(CC(=O)Nc2nc3c(s2)CN(c2cc(OC)nc(OC)n2)CC3)c1 [Compound I-251] | 88% |
| COc1cc(N2CCc3nc(NC(=O)NCC(=O)OC(C)(C)C)sc3C2)nc(OC)n1 [Compound I-252] | 88% |
| COc1cc(N2CCc3nc(NC(=O)NCCCN4CCCC4=O)sc3C2)nc(OC)n1 [Compound I-253] | 82% |
| CNC(=O)Nc1cc2n(n1)CCN2c1ccc(C(=O)NC)s1 [Compound I-256] | 78% |
| COc1cc(N2CCc3nc(NC(=O)NCCCC(=O)OC(C)(C)C)sc3C2)nc(OC)n1 [Compound I-261] | 90% |
| CNC(=O)Nc1nc2c(s1)CN(c1cc(Oc3ccccc3)nc(OCCCO)n1)CC2 [Compound I-263] | ≥ 95% |
| COc1cc(N2CCc3nc(NC(=O)CC(=O)OC(C)(C)C)sc3C2)nc(OC)n1 [Compound I-264] | 89% |
| COc1cc(N2CCc3nc(NC(=O)Cc4cc(OC)c(OC)c(OC)c4)sc3C2)nc(OC)n1 [Compound I-268] | ≥ 95% |
| COc1cc(N2CCc3nc(NC(=O)Cc4cccc(C(F)(F)F)c4)sc3C2)nc(OC)n1 [Compound I-269] | ≥ 95% |

Same assay, conditions: 0.5 h; PI3Kγ, compound at 50 μM

| Compound | inhibition at 50 µM |
| --- | --- |
| CNC(=O)Nc1cc2n(n1)CCN2c1cc(Br)cc(C(=O)N2CCOCC2)c1 [Compound I-173] | ≥ 95% |
| CNC(=O)Nc1cc2n(n1)CCN2c1cc(Br)cc(C(=O)NCCC(=O)OC(C)(C)C)c1 [Compound I-174] | ≥ 95% |
| CNC(=O)Nc1cc2n(n1)CCN2c1cc(Br)cc(C(=O)Nc2cccc(C(=O)OC(C)(C)C)c2)c1 [Compound I-175] | 94% |
| CNC(=O)Nc1cc2n(n1)CCN2c1ccc2ccccc2c1 [Compound I-176] | ≥ 95% |
| CNC(=O)Nc1cc2n(n1)CCN2c1cc(Br)cc(C(N)=O)c1 [Compound I-178] | ≥ 95% |
| CNC(=O)Nc1cc2n(n1)CCN2c1cc(Br)cc(C(=O)NC)c1 [Compound I-179] | ≥ 95% |
| CNC(=O)Nc1cc2n(n1)CCN2c1cc(Br)cc(C(=O)NC(C)(C)C)c1 [Compound I-180] | ≥ 95% |
| CNC(=O)Nc1cc2n(n1)CCN2c1cc(Br)cc(C(=O)N2CCN(C(=O)OC(C)(C)C)CC2)c1 [Compound I-182] | 79% |
| CNC(=O)Nc1cc2n(n1)CCN2c1cc(Br)cc(C(=O)NCCOC)c1 [Compound I-183] | ≥ 95% |
| CNC(=O)Nc1cc2n(n1)CCN2c1ccc(F)c(C(=O)OC(C)(C)C)c1 [Compound I-184] | ≥ 95% |
| CNC(=O)Nc1cc2n(n1)CCN2c1cc(Br)cc(C(=O)NCCC(=O)O)c1 [Compound I-186] | 89% |
| CNC(=O)Nc1cc2n(n1)CCN2c1cccc(-c2csc(NC(=O)OC(C)(C)C)n2)c1 [Compound I-188] | 91% |
| CNC(=O)Nc1cc2n(n1)CCN2c1ccc(F)c(C(=O)O)c1 [Compound I-189] | ≥ 95% |
| CNC(=O)Nc1cc2n(n1)CCN2c1cccc(S(C)(=O)=O)c1 [Compound I-191] | ≥ 95% |
| CNC(=O)Nc1cc2n(n1)CCN2c1cccc(-c2csc(N)n2)c1 [Compound I-192] | ≥ 95% |
| CNC(=O)Nc1cc2n(n1)CCN2c1ccc2c(c1)CCC2=O [Compound I-193] | ≥ 95% |
| CNC(=O)Nc1cc2n(n1)CCN2c1ccc2c(c1)CCNC2=O [Compound I-194] | 95% |
| CNC(=O)Nc1cc2n(n1)CCN2c1cc(Br)cc(C(=O)N(C)C)c1 [Compound I-195] | 93% |
| CCOC(=O)c1sc(N2CCn3nc(NC(=O)NC)cc32)nc1C [Compound I-196] | 79% |
| CNC(=O)Nc1cc2n(n1)CCN2c1cc(C(=O)N2CCOCC2)cc(-c2cccnc2)c1 [Compound I-199] | 89% |
| CNC(=O)Nc1cc2n(n1)CCN2c1nc(C)c(C(=O)O)s1 [Compound I-201] | ≥ 95% |

| Compound | inhibition at 50 µM |
| --- | --- |
| COc1cc(N2CCc3nc(NC(=O)c4cnco4)sc3C2)nc(OC)n1 [Compound I-204] | 88% |
| COc1cc(N2CCc3nc(NC(=O)NCCC(=O)N4CCOCC4)sc3C2)nc(OC)n1 [Compound I-207] | ≥ 95% |
| CNC(=O)Nc1cc2n(n1)CCN2c1cc(C(=O)N2CCOCC2)cc(-c2cnc(N)nc2)c1 [Compound I-209] | ≥ 95% |
| CNC(=O)Nc1cc2n(n1)CCN2c1cc(C(=O)N2CCOCC2)cc(-c2ccc(N)cc2)c1 [Compound I-210] | ≥ 95% |
| CCOC(=O)c1ccc(N2CCn3nc(NC(=O)NC)cc32)s1 [Compound I-211] | 89% |
| CC(C)(C)OC(=O)CCNC(=O)Nc1cc2n(n1)CCN2c1cccc(Cl)c1 [Compound I-212] | 80% |
| O=C(O)CCNC(=O)Nc1cc2n(n1)CCN2c1cccc(Cl)c1 [Compound I-215] | ≥ 95% |
| CNC(=O)Nc1cc2n(n1)CCN2c1ccc2c(c1)C(=O)CC2 [Compound I-216] | ≥ 95% |
| O=C(NCCC(=O)N1CCOCC1)Nc1cc2n(n1)CCN2c1cccc(Cl)c1 [Compound I-218] | ≥ 95% |
| O=C(Nc1cc2n(n1)CCN2c1cccc(Cl)c1)c1ccccc1 [Compound I-219] | ≥ 95% |
| CNC(=O)Nc1cc2n(n1)CCN2c1cc(C(=O)N2CCOCC2)cc(-c2cccc(O)c2)c1 [Compound I-220] | ≥ 95% |
| O=C(Nc1cc2n(n1)CCN2c1cccc(Cl)c1)c1cnco1 [Compound I-221] | ≥ 95% |
| CNC(=O)Nc1cc2n(n1)CCN2c1cc(Oc2ccccc2)cc(C(=O)N2CCOCC2)c1 [Compound I-223] | 91% |
| CNC(=O)Nc1cc2n(n1)CCN2c1cc(/C=C/c2ccccc2)cc(C(=O)N2CCOCC2)c1 [Compound I-225] | 93% |
| CNC(=O)Nc1cc2n(n1)CCN2c1ccc(C(=O)N(C)C)s1 [Compound I-226] | ≥ 95% |
| CNC(=O)Nc1cc2n(n1)CCN2c1ccc2c(c1)NC(=O)CC2 [Compound I-227] | ≥ 95% |
| CNC(=O)Nc1cc2n(n1)CCN2c1cc(C#Cc2ccccc2)cc(C(=O)N2CCOCC2)c1 [Compound I-228] | 85% |
| CNC(=O)Nc1cc2n(n1)CCN2c1cc(C(=O)N2CCOCC2)cc(C2=CCCCC2)c1 [Compound I-231] | ≥ 95% |
| CNC(=O)Nc1nc2c(s1)CN(c1cc(Oc3ccccc3)nc(OCCCOCc3ccccc3)n1)CC2 [Compound I-232] | 76% |
| CNC(=O)Nc1cc2n(n1)CCN2c1cc(C#CCOC)cc(C(=O)N2CCOCC2)c1 [Compound I-233] | 84% |
| O=C(O)CC(=O)Nc1cc2n(n1)CCN2c1cccc(Cl)c1 [Compound I-235] | 89% |

| Compound | inhibition at 50 µM |
| --- | --- |
| CC(=O)N1CCC(C(=O)Nc2cc3n(n2)CCN3c2cccc(Cl)c2)CC1 [Compound I-236] | 88% |
| O=C(Nc1cc2n(n1)CCN2c1cccc(Cl)c1)C1CCCC1 [Compound I-237] | 84% |
| COc1cccc(C(=O)Nc2cc3n(n2)CCN3c2cccc(Cl)c2)c1 [Compound I-239] | 92% |
| O=C(Nc1cc2n(n1)CCN2c1cccc(Cl)c1)c1cccc(O)c1 [Compound I-240] | 91% |
| O=C(Nc1cc2n(n1)CCN2c1cccc(Cl)c1)c1ccc2nccn2c1 [Compound I-241] | 84% |
| O=C(Cn1ccnc1)Nc1cc2n(n1)CCN2c1cccc(Cl)c1 [Compound I-242] | ≥ 95% |
| CS(=O)(=O)Nc1ccc(CC(=O)Nc2cc3n(n2)CCN3c2cccc(Cl)c2)cc1 [Compound I-243] | 81% |
| CC(=O)NCCC(=O)Nc1cc2n(n1)CCN2c1cccc(Cl)c1 [Compound I-244] | 87% |
| O=C(Nc1cc2n(n1)CCN2c1cccc(Cl)c1)c1nccs1 [Compound I-245] | 76% |
| O=C(Nc1cc2n(n1)CCN2c1cccc(Cl)c1)c1ccn[nH]1 [Compound I-246] | 90% |
| O=C(O)c1cccc(C(=O)Nc2cc3n(n2)CCN3c2cccc(Cl)c2)c1 [Compound I-247] | 95% |
| NC(=O)CCC(=O)Nc1cc2n(n1)CCN2c1cccc(Cl)c1 [Compound I-249] | ≥ 95% |
| CNC(=O)Nc1cc2n(n1)CCN2c1cc(C#CC2CCN(C(=O)OC(C)(C)C)CC2)cc(C(=O)N2CCOCC2)c1 [Compound I-250] | ≥ 95% |
| CNC(=O)Nc1cc2n(n1)CCN2c1cc(C#Cc2cccnc2)cc(C(=O)N2CCOCC2)c1 [Compound I-254] | 81% |
| COc1cc(N2CCc3nc(NC(=O)[C@H](O)c4ccccc4)sc3C2)nc(OC)n1 [Compound I-257] | 83% |
| COc1cc(N2CCc3nc(NC(=O)[C@@H](O)c4ccccc4)sc3C2)nc(OC)n1 [Compound I-258] | 92% |
| COc1cc(N2CCc3nc(NC(=O)C(=O)c4ccccc4)sc3C2)nc(OC)n1 [Compound I-259] | 89% |
| CNC(=O)Nc1cc2n(n1)CCN2c1cc(CCc2ccccc2)cc(C(=O)N2CCOCC2)c1 [Compound I-260] | 93% |
| CNC(=O)Nc1cc2n(n1)CCN2c1cc(C(=O)N2CCOCC2)cc(C2CCCCC2)c1 [Compound I-267] | ≥ 95% |
